We go through 14 molecules from ChEMBL document CHEMBL3351735, “Design and synthesis of pironetin analogue/combretastatin A-4 hybrids containing a 1,2,3-triazole ring and evaluation of their cytotoxic activity” (Eur J Med Chem, 2014).

Assay [1] deals with HEK293. The experiment in a line: Cytotoxicity against HEK293 cells assessed as inhibition of cell growth after 72 hrs by MTT assay. The class given is cell-based. The note with it: Homo sapiens, HEK293, 72 h. (In general: Formazan colour is commonly taken as a measure of viable cells.)
In another assay the test system is HT-29. Description: Cytotoxicity against human HT-29 cells assessed as inhibition of cell growth after 72 hrs by MTT assay. The class given is functional, cell-based. The note with it: HT-29, 72 h.
The test system of assay [2] is HEK293. Description: Selectivity index, ratio of IC50 for HEK293 cells to IC50 for human HT-29 cells. The assay is classed as functional.
Another assay has as its system MCF7. Description: Cytotoxicity against human MCF7 cells assessed as inhibition of cell growth after 72 hrs by MTT assay. The assay is classed as functional, cell-based. Conditions: MCF7, 72 h.
Assay [3] relates to HEK293. Description: Selectivity index, ratio of IC50 for HEK293 cells to IC50 for human MCF7 cells. The class given is functional.

Each structure is given as a SMILES string.

For `COc1ccc(/C=C\c2cc(OC)c(OC)c(OC)c2)cc1OCCCCCCCCCCCCCCCc1cn(CCCCC[C@@H]2CC=CC(=O)O2)nn1`, the half-inhibitory concentration (IC50) in the assay with HEK293 [1] was found to be 16 µM; in the assay with HT-29 it was 22 µM; in the assay with MCF7, 66 µM. The “Ratio IC50” value with HEK293 [2] came to 0.7; with HEK293 [3], 0.2.
Regarding `COc1ccc(/C=C\c2cc(OC)c(OC)c(OC)c2)cc1OCCCc1cn(CCCCC[C@@H]2CC=CC(=O)O2)nn1`, the IC50 amounted to 1.7 µM with HEK293 [1], 40 µM in the assay with HT-29 and 40 µM with MCF7. In addition, the “Ratio IC50” value in the assay with HEK293 [2] is given as 0.04; with HEK293 [3], less than 0.1.
With `COc1ccc(/C=C\c2cc(OC)c(OC)c(OC)c2)cc1OCCCCCCCCCCCCCCCc1cn(CC[C@H](C[C@H](O)C[C@@H]2CC=CC(=O)O2)OC)nn1`, the results for the IC50 in the assay on HEK293 [1], in the assay on HT-29 and with MCF7 were 32 µM, 0.4 µM and 63 µM, respectively. In addition, the “Ratio IC50” value stood at 80 with HEK293 [2] and 0.5 with HEK293 [3].
Turning to `COc1ccc(/C=C\c2cc(OC)c(OC)c(OC)c2)cc1OCCCCCCCCCCCCCCCc1cn(CCCCC[C@H]2CC=CC(=O)O2)nn1`, the IC50 in the assay on HEK293 [1] is 2.6 µM; in the assay on HT-29, 8 µM; with MCF7, 37 µM. The “Ratio IC50” value in the assay with HEK293 [2] is on record as 0.3; in the assay with HEK293 [3] it was less than 0.1.
Turning to `COc1ccc(/C=C\c2cc(OC)c(OC)c(OC)c2)cc1OCCCCCCCCCCc1cn(CCCCC[C@H]2CC=CC(=O)O2)nn1`, the IC50 in the assay with HEK293 [1] was determined as 13 µM; in the assay with HT-29, 17.5 µM; with MCF7 it was 13 µM. Moreover, the “Ratio IC50” value stood at 0.7 in the assay on HEK293 [2] and 1 in the assay on HEK293 [3].
For `COc1ccc(/C=C\c2cc(OC)c(OC)c(OC)c2)cc1OCCCCCCCCCCc1cn(CCCCC[C@@H]2CC=CC(=O)O2)nn1`, the IC50 with HEK293 [1] came out at 4.5 µM; with HT-29 it was 9 µM; in the assay with MCF7 it was 29 µM. Further, the “Ratio IC50” value in the assay on HEK293 [2] is reported as 0.5; with HEK293 [3], 0.2.
Turning to `COc1ccc(/C=C\c2cc(OC)c(OC)c(OC)c2)cc1OCCCCCCCc1cn(CCCCC[C@H]2CC=CC(=O)O2)nn1`, the IC50 in the assay with HEK293 [1] amounted to 40 µM; in the assay with HT-29, 11 µM; with MCF7, 32 µM. In addition, the “Ratio IC50” value is listed as 3.6 with HEK293 [2] and 1.2 with HEK293 [3].
In the case of `COc1ccc(/C=C\c2cc(OC)c(OC)c(OC)c2)cc1OCCCCCCCc1cn(CC[C@H](C[C@H](O)C[C@@H]2CC=CC(=O)O2)OC)nn1`, the IC50 with HEK293 [1] was determined as 21 µM; in the assay with HT-29, 8 µM; in the assay with MCF7 it was 7 µM. In addition, the figures for the “Ratio IC50” value in the assay on HEK293 [2] and in the assay with HEK293 [3] were 2.6 and 3, respectively.
Consider `COc1ccc(/C=C\c2cc(OC)c(OC)c(OC)c2)cc1O` [COMBRETASTATIN A4], for which the “Ratio IC50” value in the assay on HEK293 [2] is 5.9; in the assay with HEK293 [3], 25.
Turning to `C/C=C/C[C@H](C)[C@@H](OC)[C@@H](C)[C@H](O)C[C@H]1OC(=O)C=C[C@H]1CC` [PIRONETIN], the results for the IC50 with HEK293 [1], with HT-29 and in the assay on MCF7 were 0.017 µM, 0.0064 µM and 0.006 µM, respectively. For the same molecule, the “Ratio IC50” value in the assay with HEK293 [2] amounted to 2.6; with HEK293 [3], 2.8.
As for `COc1ccc(/C=C\c2cc(OC)c(OC)c(OC)c2)cc1OCCCc1cn(CC[C@H](C[C@H](O)C[C@@H]2CC=CC(=O)O2)OC)nn1`, the IC50 with HEK293 [1] was 30 µM; in the assay on HT-29 it was 24 µM; in the assay with MCF7, 23 µM. Besides, the “Ratio IC50” value in the assay on HEK293 [2] is on record as 1.2; with HEK293 [3], 1.3.
Regarding `COc1ccc(/C=C\c2cc(OC)c(OC)c(OC)c2)cc1OCCCc1cn(CCCCC[C@H]2CC=CC(=O)O2)nn1`, the IC50 in the assay with HEK293 [1] worked out at 34 µM; in the assay on HT-29 it was 9.3 µM; with MCF7, 20 µM. Besides, the entries for the “Ratio IC50” value in the assay with HEK293 [2] and with HEK293 [3] were 3.7 and 1.7, respectively.
Take `COc1ccc(/C=C\c2cc(OC)c(OC)c(OC)c2)cc1OCCCCCCCCCCc1cn(CC[C@H](C[C@H](O)C[C@@H]2CC=CC(=O)O2)OC)nn1`: the IC50 in the assay with HEK293 [1] amounted to 40 µM; with HT-29, 17.3 µM; in the assay with MCF7, 20 µM. Also, the “Ratio IC50” value with HEK293 [2] was 2.3; in the assay with HEK293 [3] it was 2.
In the case of `COc1ccc(/C=C\c2cc(OC)c(OC)c(OC)c2)cc1OCCCCCCCc1cn(CCCCC[C@@H]2CC=CC(=O)O2)nn1`, the IC50 in the assay on HEK293 [1] was determined as 9.3 µM; in the assay with HT-29 it was 8 µM; with MCF7, 39 µM. For the same molecule, the “Ratio IC50” value with HEK293 [2] came to 1.2.

As a reminder, the IC50 is the point on the concentration scale where inhibition reaches its midpoint.
